Values quoted from earlier work as cited in patent publication US20090047357A1, “METHOD OF PRODUCING DRUG-CONTAINING WAX MATRIX PARTICLES, EXTRUDER TO BE USED IN THE METHOD AND SUSTAINED-RELEASE PREPARATION CONTAINING CILOSTAZOL” (OTSUKA PHARMACEUTICAL CO., LTD., priority 2005, published 2009).

Structure (SMILES): Cn1c(=O)c2[nH]cnc2n(C)c1=O [theophylline]
- water solubility: about 0.6 w/v %
